# Square brackets hold non-standard residues; d marks the D form. Peptide text beside a SMILES is read from it. Dmt = Cc1cc(O)cc(C)c1C[C@H](N)C(=O)O; Orn = NCCC[C@H](N)C(=O)O
# Assays:
# Assay type in all cases: in vivo
# [1] = tested on: Subjects suspected of having or diagnosed as having DMD or BMD and taking corticosteroids and/or Eteplirsen, Golodirsen or Casimersen; test: Treatment of cardiomyopathy in human subjects with DMD or BMD taking corticosteroids and/or Eteplirsen, Golodirsen or Casimersen; details: for signs or symptoms of cardiomyopathy associated with DMD or BMD: human subjects taking corticosteroids and/or Eteplirsen, Golodirsen or Casimersen, daily subcutaneous 0.5-5.0 mg/kg/day or weekly intravenous 0.05-1.0 mg/kg/hr. for up to 4 hours; for effect of combination with corticosteroids and/or Eteplirsen, Golodirsen or Casimersen on signs or symptoms of cardiomyopathy: human subjects, compared to peptide alone, or corticosteroids and/or Eteplirsen, Golodirsen or Casimersen alone
# Procedure: Subjects suspected of having or diagnosed as having DMD or BMD and taking corticosteroids and/or Eteplirsen (Exondys 51®), Golodirsen (Vyondys 53™)or Casimersen (Amondys 45™) are separately, sequentially, or simultaneously subcutaneously administered a daily dose of H-D-Arg-2′6′-Dmt-Lys-Phe-NH2 or H-D-Arg-2′6′-Dmt-Lys-Phe-OH (e.g. with 0.5-5.0 mg/kg/day) or a weekly intravenous administration of H-D-Arg-2′6′-Dmt-Lys-Phe-NH2 or H-D-Arg-2′6′-Dmt-Lys-Phe-OH (e.g. with 0.05-1.0 mg/kg/hr. for up to 4 hours). Subjects will be regularly evaluated (e.g., weekly, bi-weekly, monthly, etc.) for the presence and/or severity of signs and symptoms of cardiomyopathy associated with DMD or BMD including, but not limited to, impaired left ventricular dynamics, e.g., reduced ejection fraction, reduced shortening fraction, reduced stroke volume, and/or reduced cardiac output, and elevated levels serum biomarkers associated with myocardial fibrosis, such as, e.g., elevated levels of carboxy terminal peptide of procollagen type I (PICP) and/or amino terminal propeptide of procollagen type III. Treatments are maintained at least until such a time as one or more signs or symptoms of cardiomyopathy associated with DMD or BMD are ameliorated or eliminated. The study may be conducted in a randomized withdrawal trial (e.g. randomized, double-blind, placebo-controlled withdrawal trial) to assess the impact of the peptide on the subjects followed by the impact of its withdrawal relative to a control group still receiving the peptide.
# D2-mdx mice = test: Echocardiography in D2-mdx mouse model; details: treated vs untreated D2-mdx mice; daily IP 1.0 or 5.0 mg/kg for 10-15 weeks
# Procedure: Animals and Care: The DBA2 (a.k.a. D2-mdx) congenic strain of mdx mouse will be used for these studies. DBA/2J mice will be used as the wildtype control group. Animals will be obtained from appropriate sources (e.g. Jackson Labs). Animals will be housed at a density of up to five males or five females per cage under specific pathogen-free conditions in rooms with a 12-h light/12-h dark cycle at a temperature of 18-23° C. and 40-60% humidity. All experiments involving mice in this study will be performed in accordance with all applicable laws and regulations.
# Echocardiography: In order to assess the cardiac function of mice in vivo, echocardiography will be performed on sedated mice. Mice will first be anesthetized (e.g. with 5% isoflurane mixed with 100% oxygen at 1.0 1/min flow) and then maintained under anesthesia (e.g. with 1.5% isoflurane/oxygen flow. Ophthalmic ointment can be placed on the eyes of the animals to prevent drying of the cornea while the mouse was anesthetized and tested. After anesthetic induction, the animals will be placed on a thermostatically controlled heated platform, where anesthesia can be maintained by delivery through a close-fitting facemask. A heating lamp can also be used to keep the heart rate and body temperature constant at physiological status during echocardiography.
# During the examination, the animal’s heart rate will be monitored through the use of an electrocardiograph. The mouse’s heart rate and body temperature will be monitored continuously during the scanning. Echocardiography will be performed using an appropriate apparatus (e.g. Vevo770 ultrasound machine (VisualSonics, Toronto, Canada). The 2-D (B-mode), M-mode and Doppler images will be acquired from a modified parasternal long axis view, parasternal short axis view, suprasternal notch view and apical three-chamber view. The heart rate (BPM), fractional shortening, EF, stroke volume and cardiac output will be obtained for cardiac function assessment using measurements from the modified parasternal short axis view in the M-mode. Qualitative and quantitative measurements will be recorded using offline workstation software, and post-imaging analysis will be performed.
# Study Design • 1. N=40-60 mice total assigned to following groups • a. Wildtype control - untreated, n=10-15 • b. mdx, vehicle treated, n=10-15 • c. mdx, daily IP elamipretide 1.0 mg/kg, n=10-15 • d. mdx, daily IP elamipretide 5.0 mg/kg, n=10-15 • 2. Dosing to begin at 4-6 weeks of age and continue for 10-15 weeks • a. Weekly retroorbital eye bleeds will be taken to provide serum for biomarker analysis • 3. In-life endpoints • a. Weekly body weight will be taken • b. Measurements of weekly voluntary wheel running will be determined • i. Total distance (m) • ii. Normalized distance (m/kg) • c. Echocardiogram (at least at week 18 & end of study but possibly more often, including possibly bi-monthly). The following parameters will be accessed. • i. Ejection fraction (%) • ii. Fractional shortening (%) • iii. Stroke volume (uL) • iv. Cardiac output (mL) • v. Heart rate (bpm) • 4. Endpoints post-necropsy • a. Serum analysis for creatine kinase • b. Histology of heart and inflammation and fibrosis
# DMD KO rabbits = test: Body weight and survival in DMD KO rabbit model; details: treated DMD KO rabbits vs untreated control group of DMD KO rabbits; 0.5 to 5 mg/kg once daily i.p., approximately 3-5 months
# Text: Rabbits: The DMD KO rabbits used in this study will be obtained from the Laboratory Animal Center of Jilin University or prepared as described in Sui et al., Disease Models & Mechanisms 11 (2018). […] New Zealand rabbits (WT) will be used as controls.
# Body Weight & Survival Curve: The body weight of age- and sex-matched WT and DMD KO rabbits will be measured biweekly. All data will be expressed as the mean±s.e.m., and a minimum of three individual animals of each genotype will be used in all experiments.
# Study Design: At approximately 3-4 weeks of age, rabbits will be administered peptide (or a mixture of peptides) dissolved in sterile saline in dose(s) ranging from 0.5 to 5 mg/kg, once daily via intraperitoneal (i.p.) injection. The control group will be given placebo (sterile saline). Rabbits will be treated daily with peptide (or a mixture of peptides) or saline vehicle control, with treatment lasting approximately 3-5 months. For example, the peptide used could be a peptide of Formula A-1 (i.e. H-D-Arg-2′6′-Dmt-Lys-Phe-NH2). Echocardiograms will be collected monthly until animals are approximately 4-6 months of age or end of life. At the time of death, tissues will be harvested and variables described above will be collected.
# [2] = tested on: Subjects suspected of having or diagnosed as having DMD or BMD; test: Treatment of cardiomyopathy in human subjects diagnosed with muscular dystrophy; details: daily subcutaneous 0.5-5.0 mg/kg/day or weekly intravenous 0.05-1.0 mg/kg/hr. for up to 4 hours
# Procedure: Subjects suspected of having or diagnosed as having DMD or BMD receive daily subcutaneous administration of H-D-Arg-2′6′-Dmt-Lys-Phe-NH2 or H-D-Arg-2′6′-Dmt-Lys-Phe-OH (e.g. with 0.5-5.0 mg/kg/day). Alternatively, subjects suspected of having or diagnosed as having DMD or BMD receive weekly intravenous administration of H-D-Arg-2′6′-Dmt-Lys-Phe-NH2 or H-D-Arg-2′6′-Dmt-Lys-Phe-OH (e.g. with 0.05-1.0 mg/kg/hr. for up to 4 hours). In some cases, the subjects could be co-administered a drug known to increase or correct the production of dystrophin in the subject, such as a phosphorodiamidate morpholino oligomer (PMO) such as Eteplirsen (Exondys 51®), Golodirsen (Vyondys 53™) or Casimersen (Amondys 45™) or a PPMO. Subjects will be regularly evaluated (e.g., weekly, bi-weekly, monthly, etc.) for the presence and/or severity of signs and symptoms of cardiomyopathy associated with DMD or BMD including, but not limited to, impaired left ventricular dynamics, e.g., reduced ejection fraction, reduced shortening fraction, reduced stroke volume, and/or reduced cardiac output, and elevated levels serum biomarkers associated with myocardial fibrosis, such as, e.g., elevated levels of carboxy terminal peptide of procollagen type I (PICP) and/or amino terminal propeptide of procollagen type III. […]
SMILES,signs or symptoms of cardiomyopathy associated with DMD or BMD [1],"effect of combination with corticosteroids and/or Eteplirsen, Golodirsen or Casimersen on signs or symptoms of cardiomyopathy [1]",cardiac output (D2-mdx mice),fractional shortening (FS) (D2-mdx mice),lifespan (DMD KO rabbits),signs or symptoms of cardiomyopathy associated with DMD or BMD [2]
"Cc1cc(O)cc(C)c1C[C@H](NC(=O)[C@H](N)CCCNC(=N)N)C(=O)N[C@@H](CCCCN)C(=O)N[C@@H](Cc1ccccc1)C(N)=O [Compound A-1, H-D-Arg-2′6′-Dmt-Lys-Phe-NH2] (H-[dR][Dmt]KF-NH2)",delayed or reduced severity or elimination,synergistic effects,higher,higher,statistically significant increase in lifespan,reduced severity or elimination
"Cc1cc(O)cc(C)c1C[C@H](NC(=O)[C@H](N)CCCNC(=N)N)C(=O)N[C@@H](CCCCN)C(=O)N[C@@H](Cc1ccccc1)C(=O)O [Compound A-2, H-D-Arg-2′6′-Dmt-Lys-Phe-OH] (H-[dR][Dmt]KF-OH)",delayed or reduced severity or elimination,synergistic effects,higher,higher,statistically significant increase in lifespan,reduced severity or elimination
Cc1cc(O)cc(C)c1C[C@H](NC(=O)[C@H](N)CCCNC(=N)N)C(=O)N[C@@H](CCCNC(=N)N)C(=O)N[C@@H](Cc1ccccc1)C(N)=O [Compound A-3] (H-[dR][Dmt]RF-NH2),–,–,higher,higher,statistically significant increase in lifespan,–
Cc1cc(O)cc(C)c1C[C@H](NC(=O)[C@H](N)CCCNC(=N)N)C(=O)N[C@@H](CCCNC(=N)N)C(=O)N[C@@H](Cc1ccccc1)C(=O)O [Compound A-4] (H-[dR][Dmt]RF-OH),–,–,higher,higher,statistically significant increase in lifespan,–
Cc1cc(O)cc(C)c1C[C@H](NC(=O)[C@H](N)CCCNC(=N)N)C(=O)N[C@@H](CCCN)C(=O)N[C@@H](Cc1ccccc1)C(N)=O [Compound A-5] (H-[dR][Dmt][Orn]F-NH2),–,–,higher,higher,statistically significant increase in lifespan,–
Cc1cc(O)cc(C)c1C[C@H](NC(=O)[C@H](N)CCCNC(=N)N)C(=O)N[C@@H](CCCN)C(=O)N[C@@H](Cc1ccccc1)C(=O)O [Compound A-6] (H-[dR][Dmt][Orn]F-OH),–,–,higher,higher,statistically significant increase in lifespan,–
N=C(N)NCCC[C@@H](N)C(=O)N[C@@H](Cc1ccc(O)cc1)C(=O)N[C@@H](CCCCN)C(=O)N[C@@H](Cc1ccccc1)C(N)=O [Compound A-7] (H-[dR]YKF-NH2),–,–,higher,higher,statistically significant increase in lifespan,–
N=C(N)NCCC[C@@H](N)C(=O)N[C@@H](Cc1ccc(O)cc1)C(=O)N[C@@H](CCCCN)C(=O)N[C@@H](Cc1ccccc1)C(=O)O [Compound A-8] (H-[dR]YKF-OH),–,–,higher,higher,statistically significant increase in lifespan,–

# — US20230256047A1, “METHODS AND COMPOSITIONS FOR THE TREATMENT OF MUSCULAR DYSTROPHY” (STEALTH BIOTHERAPEUTICS INC., priority 2020, published 2023)
